The values below come from patent US9593108B2, “Compounds and methods for antiviral treatment” (PTC Therapeutics, Inc., priority 2009, dated 2017).

Series [1] has as its system HCV replicon RNA (GenBank Accession No. AJ242654). In words: HCV Replicon Assay (replicon RNA reduction and/or Fluc reporter signal). The class given is cell-based, Hepatitis C virus. Conditions: Hepatitis C virus, 72 h, replicon-containing cells cultured with test compound for up to 3 days. In a few lines: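 Bicistronic replicon-containing cells cultured with compound for up to 3 days, with interferon as positive control. Inhibition quantified by replicon RNA reduction and/or Fluc reporter signal; IC50 values generally derived from replicon RNA reduction.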

Compound `COc1cnc2c(c1)c(C#N)c(-c1ccc(S(=O)(=O)NC3(C)CC3)cn1)n2C1CCC1` [Cpd 311, 6-(3-cyano-1-cyclobutyl-5-methoxy-1H-pyrrolo[2,3-b]pyridin-2-yl)-N-(1-methylcyclopropyl)pyridine-3-sulfonamide] had a melting point of 179 to 181 °C. Moreover, in series [1], the IC50 is less than 500 nM.
`NC(=O)c1c(-c2ccc(NS(=O)(=O)C3CCC3)cc2)n(C2CCCCC2)c2ncc(C(F)(F)F)cc12` [Cpd 449, 2-{4-[(cyclobutylsulfonyl)amino]phenyl}-1-cyclohexyl-5-(trifluoromethyl)-1H-pyrrolo[2,3-b]pyridine-3-carboxamide]: the melting point was 256 to 258 °C. In addition, in series [1], the IC50 was 500 to 2000 nM.
`Cc1cnc2c(c1)c(C#N)c(-c1cccc(NS(=O)(=O)C(C)C)c1)n2C1CCC1` [Cpd 299, N-[3-(3-cyano-1-cyclobutyl-5-methyl-1H-pyrrolo[2,3-b]pyridin-2-yl)phenyl]propane-2-sulfonamide]: the melting point fell in the range of 166 to 173 °C. For the same compound, in series [1], the half-inhibitory concentration (IC50) fell in the range of 2000 to 5000 nM.
As to `CC1(NS(=O)(=O)c2ccc(-c3c(C#N)c4cc(C5CC5)cnc4n3C3CCC3)nc2)CC1` [Cpd 128, 6-(3-cyano-1-cyclobutyl-5-cyclopropyl-1H-pyrrolo[2,3-b]pyridin-2-yl)-N-(1-methylcyclopropyl)pyridine-3-sulfonamide], the melting point was in the range of 178 to 185 °C. Further, in series [1], the IC50 was less than 500 nM.
On the same counts, the results for `CC(C)(C)NS(=O)(=O)c1ccc(-c2c(C#N)c3cc(C(F)(F)F)cnc3n2C2CCC2)nc1` [Cpd 297, N-tert-butyl-6-[3-cyano-1-cyclobutyl-5-(trifluoromethyl)-1H-pyrrolo[2,3-b]pyridin-2-yl]pyridine-3-sulfonamide] are 176 to 178 °C and less than 500 nM.
With `COc1cnc2c(c1)c(C#N)c(-c1ccc(S(=O)(=O)NC(C)C)cc1)n2CC1CC1` [Cpd 2, 4-[3-cyano-1-(cyclopropylmethyl)-5-methoxy-1H-pyrrolo[2,3-b]pyridin-2-yl]-N-(propan-2-yl)benzenesulfonamide], the melting point lay in the range of 151 to 153 °C. This compound also yielded an IC50 in series [1] of less than 500 nM.
In turn, `CC(C)(NS(=O)(=O)c1ccc(-c2c(C(N)=O)c3cc(C(F)(F)F)cnc3n2C2CCCCC2)nc1)C(F)(F)F` [Cpd 438, 1-cyclohexyl-5-(trifluoromethyl)-2-{5-[(1,1,1-trifluoro-2-methylpropan-2-yl)sulfamoyl]pyridin-2-yl}-1H-pyrrolo[2,3-b]pyridine-3-carboxamide] gave a melting point of 250 to 252 °C. Also, the 50% inhibitory concentration (IC50) in series [1] is less than 500 nM.
`Cc1cnc2c(c1)c(C#N)c(-c1ccc(S(=O)(=O)N[C@@H](C)C(F)(F)F)cn1)n2-c1cc(F)cc(F)c1` [Cpd 506, 6-[3-cyano-1-(3,5-difluorophenyl)-5-methyl-1H-pyrrolo[2,3-b]pyridin-2-yl]-N-[(2S)-1,1,1-trifluoropropan-2-yl]pyridine-3-sulfonamide] gave a melting point of 260 to 262 °C. For the same compound, the IC50 in series [1] was less than 500 nM.
The compound `COc1ccc2c(C#N)c(-c3ccc(S(=O)(=O)N[C@@H](C)C(F)(F)F)cn3)n(C3CCC3)c2n1` [Cpd 40, 6-(3-cyano-1-cyclobutyl-6-methoxy-1H-pyrrolo[2,3-b]pyridin-2-yl)-N-[(2S)-1,1,1-trifluoropropan-2-yl]pyridine-3-sulfonamide] had a melting point of 193 to 194 °C. This compound also registered a half-maximal inhibitory concentration (IC50) in series [1] of 500 to 2000 nM.
As for `CSc1cnc2c(c1)c(C#N)c(-c1ccc(S(=O)(=O)N[C@@H](C)C(F)(F)F)cn1)n2C1CCCC1` [Cpd 272, 6-[3-cyano-1-cyclopentyl-5-(methylsulfanyl)-1H-pyrrolo[2,3-b]pyridin-2-yl]-N-[(2S)-1,1,1-trifluoropropan-2-yl]pyridine-3-sulfonamide], the melting point was 168 to 172 °C. In addition, in series [1], the IC50 was less than 500 nM.
Regarding `C[C@H](NS(=O)(=O)c1ccc(-c2c(C#N)c3cc(Cl)cnc3n2-c2cnccn2)nc1)C(F)(F)F` [Cpd 307, 6-[5-chloro-3-cyano-1-(pyrazin-2-yl)-1H-pyrrolo[2,3-b]pyridin-2-yl]-N-[(2S)-1,1,1-trifluoropropan-2-yl]pyridine-3-sulfonamide], the melting point lay within 247 to 249 °C. Further, the IC50 in series [1] is less than 500 nM.
For the compound `Cc1cnc2c(c1)c(C#N)c(-c1ccc(S(=O)(=O)N[C@@H](C)C(F)(F)F)cn1)n2C1CCC1` [Cpd 69, 6-(3-cyano-1-cyclobutyl-5-methyl-1H-pyrrolo[2,3-b]pyridin-2-yl)-N-[(2S)-1,1,1-trifluoropropan-2-yl]pyridine-3-sulfonamide], the melting point was in the range of 177 to 179 °C. Moreover, the IC50 in series [1] was less than 500 nM.
The like results for `Cc1cnc2c(c1)c(C#N)c(-c1ccc(S(=O)(=O)N[C@@H](C)C(F)(F)F)cn1)n2-c1ccncc1` [Cpd 368, 6-[3-cyano-5-methyl-1-(pyridin-4-yl)-1H-pyrrolo[2,3-b]pyridin-2-yl]-N-[(2S)-1,1,1-trifluoropropan-2-yl]pyridine-3-sulfonamide] were, in that order, 243 to 245 °C and less than 500 nM.
With `Cc1cnc2c(C#N)c(-c3ccc(S(=O)(=O)N[C@H](C)C(F)(F)F)cc3)n(C3CCC3)c2c1` [Cpd 217, 4-(3-cyano-1-cyclobutyl-6-methyl-1H-pyrrolo[3,2-b]pyridin-2-yl)-N-[(2R)-1,1,1-trifluoropropan-2-yl]benzenesulfonamide], the melting point is 252 to 253 °C. This compound registered an IC50 in series [1] of 2000 to 5000 nM.
On the same counts, the results for `Cc1cnc2c(c1)c(C#N)c(-c1ccc(S(=O)(=O)NC3(C(F)(F)F)CC3)cn1)n2C1CCC1` [Cpd 74, 6-(3-cyano-1-cyclobutyl-5-methyl-1H-pyrrolo[2,3-b]pyridin-2-yl)-N-[1-(trifluoromethyl)cyclopropyl]pyridine-3-sulfonamide] are 245 to 247 °C and less than 500 nM.
The compound `CC1(NS(=O)(=O)c2ccc(-c3c(C#N)c4cnc(Cl)cc4n3C3CCCC3)nc2)CC1` [Cpd 84, 6-(6-chloro-3-cyano-1-cyclopentyl-1H-pyrrolo[3,2-c]pyridin-2-yl)-N-(1-methylcyclopropyl)pyridine-3-sulfonamide] returned a melting point of 209 to 211 °C. In addition, in series [1], the IC50 was less than 500 nM.
As to `Cc1cc2c(cn1)c(C#N)c(-c1ccc(S(=O)(=O)NC(CF)CF)cn1)n2C1CCC1` [Cpd 26, 6-(3-cyano-1-cyclobutyl-6-methyl-1H-pyrrolo[3,2-c]pyridin-2-yl)-N-(1,3-difluoropropan-2-yl)pyridine-3-sulfonamide], the melting point was in the range of 216 to 218 °C. Further, in series [1], the IC50 lay in the range of 500 to 2000 nM.
Compound `Cc1ncc2c(C#N)c(-c3ccc(S(=O)(=O)NC(C)(C)C(F)(F)F)cc3)n(C3CCC3)c2n1` [Cpd 53, 4-(5-cyano-7-cyclobutyl-2-methyl-7H-pyrrolo[2,3-d]pyrimidin-6-yl)-N-(1,1,1-trifluoro-2-methylpropan-2-yl)benzenesulfonamide] displayed a melting point of 211 to 214 °C. Further, the IC50 in series [1] was less than 500 nM.
The like results for `CCc1cnc2c(c1)c(C#N)c(-c1ccc(S(=O)(=O)N[C@@H](C)C(F)(F)F)cn1)n2-c1cnccn1` [Cpd 411, 6-[3-cyano-5-ethyl-1-(pyrazin-2-yl)-1H-pyrrolo[2,3-b]pyridin-2-yl]-N-[(2S)-1,1,1-trifluoropropan-2-yl]pyridine-3-sulfonamide] were, in that order, 195 to 200 °C and less than 500 nM.
`CC(C)(C)S(=O)(=O)Nc1ccc(-c2c(C#N)c3cc(C(F)(F)F)cnc3n2C2CCCCC2)cc1` [Cpd 424, N-{4-[3-cyano-1-cyclohexyl-5-(trifluoromethyl)-1H-pyrrolo[2,3-b]pyridin-2-yl]phenyl}-2-methylpropane-2-sulfonamide]: the melting point fell in the range of 245 to 247 °C. In addition, the IC50 in series [1] is less than 500 nM.
Consider `C[C@H](NS(=O)(=O)c1ccc(-c2c(C#N)c3cccnc3n2C2CCC2)nc1)C(F)(F)F` [Cpd 18, 6-(3-cyano-1-cyclobutyl-1H-pyrrolo[2,3-b]pyridin-2-yl)-N-[(2S)-1,1,1-trifluoropropan-2-yl]pyridine-3-sulfonamide], for which the melting point lay within 183 to 185 °C. In series [1], this compound yielded an IC50 of 500 to 2000 nM.
Compound `C[C@H](NS(=O)(=O)c1ccc(-c2c(C#N)c3cc(-c4cccs4)cnc3n2C2CCC2)nc1)C(F)(F)F` [Cpd 237, 6-[3-cyano-1-cyclobutyl-5-(thiophen-2-yl)-1H-pyrrolo[2,3-b]pyridin-2-yl]-N-[(2S)-1,1,1-trifluoropropan-2-yl]pyridine-3-sulfonamide] had a melting point of 206 to 208 °C. Besides, the IC50 in series [1] lay in the range of 2000 to 5000 nM.
As for `CC(C)NS(=O)(=O)c1ccc(-c2c(C#N)c3cc(F)cnc3n2CC2CC2)cc1` [Cpd 4, 4-[3-cyano-1-(cyclopropylmethyl)-5-fluoro-1H-pyrrolo[2,3-b]pyridin-2-yl]-N-(propan-2-yl)benzenesulfonamide], the melting point was in the range of 162 to 165 °C. Also, in series [1], the IC50 lay in the range of 2000 to 5000 nM.
Compound `C[C@H](NS(=O)(=O)c1ccc(-c2c(C#N)c3cc(Cl)cnc3n2C2CCC2)cc1)C(F)(F)F` [Cpd 61, 4-(5-chloro-3-cyano-1-cyclobutyl-1H-pyrrolo[2,3-b]pyridin-2-yl)-N-[(2S)-1,1,1-trifluoropropan-2-yl]benzenesulfonamide] registered a melting point of 220 to 222 °C. Moreover, the IC50 in series [1] is less than 500 nM.
The like results for `C[C@H](NS(=O)(=O)c1ccc(-c2c(C#N)c3cc(C(F)(F)F)cnc3n2C2CCCC2)nc1)C(F)(F)F` [Cpd 229, 6-[3-cyano-1-cyclopentyl-5-(trifluoromethyl)-1H-pyrrolo[2,3-b]pyridin-2-yl]-N-[(2S)-1,1,1-trifluoropropan-2-yl]pyridine-3-sulfonamide] were, in that order, 205 to 207 °C and less than 500 nM.
In turn, `CC(C)(C)NS(=O)(=O)c1ccc(-c2c(C#N)c3cc(C(F)(F)F)cnc3n2-c2ccc(F)cc2)nc1` [Cpd 517, N-tert-butyl-6-[3-cyano-1-(4-fluorophenyl)-5-(trifluoromethyl)-1H-pyrrolo[2,3-b]pyridin-2-yl]pyridine-3-sulfonamide] displayed a melting point of 228.3 to 229.4 °C. In series [1], the IC50 is 500 to 2000 nM.
